Reference: US20240390328A1, “PHARMACEUTICAL COMPOSITION CONTAINING AS ACTIVE INGREDIENT COMPOUND CONJUGATED TO G4 STRUCTURES OF CORONAVIRUSES FOR PREVENTION OR TREATMENT OF CORONAVIRUS INFECTIOUS DISEASES” (priority 2020, published 2024)

Assays:
Format in all cases: binding
[1] = test system: SARS-COV-2 RNA G4, position 353 (NsP1); test: CD thermal melting analysis, G4 No. 1; details: G4 No. 1, position 353, NsP1; 15 μM RNA G4, 30 μM compound
Experimental: (§1) For melting, the samples were heated at 25 to 95° C. at 2° C./min with a data pitch of 0.5° C. CD melting analyses were performed with and without G4-binding compounds. The ratio of RNA: G4-binding compound was set to a molar ratio of 1:2. 15 μM RNA G4 was treated with 30 μM G4-binding compound and incubated at room temperature in a buffer comprising 10 mM Tris-HCl (pH 7.5) and 100 mM KCl for 30 minutes. Ellipticity was measured at 265 nm. Thereafter, data were normalized and plotted in OriginPro 2017 to calculate Tm values.
(§2) In addition, 15 μM RNA G4 was treated with 30 μM compound and incubated, and a CD thermal melting curve of RNA G4 (15 μM) was obtained in the presence or absence of the G4-binding compound. Furthermore, the effect of G4-binding compounds on the stability of SARS-COV-2 G4 was confirmed by measuring the difference in melting temperature (ΔTm). The results are illustrated in FIGS. 6A and 6B.

[2] = test system: SARS-COV-2 RNA G4, position 1463 (NsP2); test: CD thermal melting analysis, G4 No. 3; details: G4 No. 3, position 1463, NsP2; 15 μM RNA G4, 30 μM compound
Experimental: as §1, §2

[3] = test system: SARS-COV-2 RNA G4, position 2714 (NsP2 + NsP3); test: CD thermal melting analysis, G4 No. 5; details: G4 No. 5, position 2714, NsP2 + NsP3; 15 μM RNA G4, 30 μM compound
Experimental: as §1, §2

[4] = test system: SARS-COV-2 RNA G4, position 3467 (NsP3); test: CD thermal melting analysis, G4 No. 6; details: G4 No. 6, position 3467, NsP3; 15 μM RNA G4, 30 μM compound
Experimental: as §1, §2

[5] = test system: SARS-COV-2 RNA G4, position 4162 (NsP3); test: CD thermal melting analysis, G4 No. 7; details: G4 No. 7, position 4162, NsP3; 15 μM RNA G4, 30 μM compound
Experimental: as §1, §2

[6] = test system: SARS-COV-2 RNA G4, position 4261 (NsP3); test: CD thermal melting analysis, G4 No. 8; details: G4 No. 8, position 4261, NsP3; 15 μM RNA G4, 30 μM compound
Experimental: as §1, §2

[7] = test system: SARS-COV-2 RNA G4, position 8687 (NsP4); test: CD thermal melting analysis, G4 No. 9; details: G4 No. 9, position 8687, NsP4; 15 μM RNA G4, 30 μM compound
Experimental: as §1, §2

[8] = test system: SARS-COV-2 RNA G4, position 10261 (NsP5); test: CD thermal melting analysis, G4 No. 10; details: G4 No. 10, position 10261, NsP5; 15 μM RNA G4, 30 μM compound
Experimental: as §1, §2

[9] = test system: SARS-COV-2 RNA G4, position 13385 (NsP10); test: CD thermal melting analysis, G4 No. 11; details: G4 No. 11, position 13385, NsP10; 15 μM RNA G4, 30 μM compound
Experimental: as §1, §2

[10] = test system: SARS-COV-2 RNA G4, position 14947 (NsP12); test: CD thermal melting analysis, G4 No. 12; details: G4 No. 12, position 14947, NsP12; 15 μM RNA G4, 30 μM compound
Experimental: as §1, §2

[11] = test system: SARS-COV-2 RNA G4, position 15448 (NsP12); test: CD thermal melting analysis, G4 No. 14; details: G4 No. 14, position 15448, NsP12; 15 μM RNA G4, 30 μM compound
Experimental: as §1, §2

[12] = test system: SARS-COV-2 RNA G4, position 18296 (NsP12); test: CD thermal melting analysis, G4 No. 15; details: G4 No. 15, position 18296, NsP12; 15 μM RNA G4, 30 μM compound
Experimental: as §1, §2

[13] = test system: SARS-COV-2 RNA G4, position 24268 (Surface glycoprotein); test: CD thermal melting analysis, G4 No. 18; details: G4 No. 18, position 24268, Surface glycoprotein; 15 μM RNA G4, 30 μM compound
Experimental: as §1, §2

[14] = test system: SARS-COV-2 RNA G4, position 25197 (Surface glycoprotein); test: CD thermal melting analysis, G4 No. 19; details: G4 No. 19, position 25197, Surface glycoprotein; 15 μM RNA G4, 30 μM compound
Experimental: as §1, §2

[15] = test system: SARS-COV-2 RNA G4, position 25951 (ORF3a protein); test: CD thermal melting analysis, G4 No. 20; details: G4 No. 20, position 25951, ORF3a protein; 15 μM RNA G4, 30 μM compound
Experimental: as §1, §2

[16] = test system: SARS-COV-2 RNA G4, position 26746 (Membrane protein); test: CD thermal melting analysis, G4 No. 21; details: G4 No. 21, position 26746, Membrane protein; 15 μM RNA G4, 30 μM compound
Experimental: as §1, §2

[17] = test system: SARS-COV-2 RNA G4, position 29123 (Nucleocapsid protein); test: CD thermal melting analysis, G4 No. 24; details: G4 No. 24, position 29123, Nucleocapsid protein; 15 μM RNA G4, 30 μM compound
Experimental: as §1, §2

[18] = test system: SARS-COV-2 RNA G4, position 29234 (Nucleocapsid protein); test: CD thermal melting analysis, G4 No. 25; details: G4 No. 25, position 29234, Nucleocapsid protein; 15 μM RNA G4, 30 μM compound
Experimental: as §1, §2

[19] = test system: 25 G4s predicted for SARS-COV-2; test: CD thermal melting analysis, comparison of ΔTm over all G4s; details: for effect on stability of SARS-COV-2 G4 (ΔTm), in words: 15 μM RNA G4, 30 μM compound, FIGS. 6A and 6B; for number of G4s Destabilized: of the 25 SARS-COV-2 G4s

Row | SMILES | Tm in ° C. with compound [1] [°C] | ΔTm [1] [°C] | Tm in ° C. with compound [2] [°C] | ΔTm [2] [°C] | Tm in ° C. with compound [3] [°C] | ΔTm [3] [°C] | Tm in ° C. with compound [4] [°C] | ΔTm [4] [°C] | Tm in ° C. with compound [5] [°C] | ΔTm [5] [°C] | Tm in ° C. with compound [6] [°C] | ΔTm [6] [°C] | Tm in ° C. with compound [7] [°C] | ΔTm [7] [°C] | Tm in ° C. with compound [8] [°C] | ΔTm [8] [°C] | Tm in ° C. with compound [9] [°C] | ΔTm [9] [°C] | Tm in ° C. with compound [10] [°C] | ΔTm [10] [°C] | further results
1 | CN1CCC[C@H]1CCNC(=O)c1cn2c3c(c(N4CCC(c5cnccn5)C4)c(F)cc3c1=O)Oc1cc3ccccc3cc1-2 (stereo partly drawn) [CX-3543, 15-fluoro-N-[2-[(2S)-1-methylpyrrolidin-2-yl]ethyl]-18-oxo-14-(3-pyrazin-2-ylpyrrolidin-1-yl)-12-oxa-1-azapentacyclo [11.7.1.0^2,11.0^4,9.0^17,21]henicosa-2,4,6,8, 10, 13 (21), 14,16,19-nonaene-19-carboxamide] | 72.64 | 1.05 | 66.55 | 11.03 | 57.69 | −13.45 | 63.54 | −2.01 | 58.94 | 2.05 | 63.89 | 13.58 | 49.83 | 2.97 | 50.24 | 2.35 | 52.87 | 7.27 | 58.11 | 0.9 | Tm in ° C. with compound [11]: 58.58 °C; ΔTm [11]: 5.96 °C; Tm in ° C. with compound [12]: 63.64 °C; ΔTm [12]: 4.81 °C; Tm in ° C. with compound [13]: 40.42 °C; ΔTm [13]: −0.05 °C; Tm in ° C. with compound [14]: 66.57 °C; ΔTm [14]: −4.62 °C; Tm in ° C. with compound [15]: 53.87 °C; ΔTm [15]: 5.13 °C; Tm in ° C. with compound [16]: 59.29 °C; ΔTm [16]: −3.37 °C; Tm in ° C. with compound [17]: 62.59 °C; ΔTm [17]: 8.19 °C; Tm in ° C. with compound [18]: 58.52 °C; ΔTm [18]: −3.65 °C; effect on stability of SARS-COV-2 G4 (ΔTm), in words [19]: did not show any noticeable change; number of G4s Destabilized [19]: 6
2 | NCCOc1cc(C(=O)Nc2cc(OCCN)c3ccccc3n2)nc(C(=O)Nc2cc(OCCN)c3ccccc3n2)c1 [PDS, 4-(2-aminoethoxy)-N2,N6-bis(4-(2-aminoethoxy)quinolin-2-yl)pyridine-2,6-dicarboxamide] | 87.66 | 16.07 | 60.04 | 4.52 | 86.49 | 15.35 | 88.65 | 23.1 | 56.03 | −0.86 | 79.18 | 28.87 | 84.44 | 37.58 | 60.66 | 12.77 | 63.07 | 17.47 | 82.16 | 24.95 | Tm in ° C. with compound [11]: 56.5 °C; ΔTm [11]: 3.88 °C; Tm in ° C. with compound [12]: 82.4 °C; ΔTm [12]: 23.57 °C; Tm in ° C. with compound [13]: 46.11 °C; ΔTm [13]: 5.64 °C; Tm in ° C. with compound [14]: 68.63 °C; ΔTm [14]: −2.56 °C; Tm in ° C. with compound [15]: 92.26 °C; ΔTm [15]: 43.52 °C; Tm in ° C. with compound [16]: 68.77 °C; ΔTm [16]: 6.11 °C; Tm in ° C. with compound [17]: 73.83 °C; ΔTm [17]: 19.43 °C; Tm in ° C. with compound [18]: 80.2 °C; ΔTm [18]: 18.03 °C; effect on stability of SARS-COV-2 G4 (ΔTm), in words [19]: significantly stabilized most G4s; proportion of the G4s with ΔTm>20° C. ([19]; among the 25 G4s predicted for SARS-COV-2): 36%; number of G4s Destabilized [19]: 2
